The numbers were not newly measured in patent publication US20220347065A1, “ANTIPERSPIRANT EMULSION” (Conopco, Inc., d/b/a UNILEVER, priority 2019, published 2022), which cites them from elsewhere.

The series has as its system Staphylococcus epidermidis. The following applies: 80% or greater reduction in growth, 16 to 24 hours at 37° C.

Turning to `CCO` [ethanol], the MIC – broadly, the lowest concentration found to suppress growth – was “greater than 1 mg·ml^−1”.
On to `Oc1cc(Cl)ccc1Oc1ccc(Cl)cc1Cl` [triclosan, 2′,4,4′-trichloro,2-hydroxy-diphenyl ether], for which the MIC was 0.01 to 10 µg/mL.
Turning to `CC(C)=CCCC(C)=CCCC(C)=CCO` [farnesol, 3,7,11-trimethyldodeca-2,6,10-trienol], the MIC entry is given as “ca. 25 μg·ml^−1”.
